Earlier results on seven compounds are cited in patent US12115139B2, “Treatment methods and processes for an infected nail” (priority 2018, dated 2024).

Several values for one entry are separate records, joined by “and”; a condition that tells them apart may be missing. Equal values may be shown once. Where a name gives a salt, the structure may show the parent alone.

The data set relates to nail infections. The settings on record: for side effects compared with Lamisil: oral treatment.

As to `C[C@@H](n1cnc2cc(Cl)ccc2c1=O)[C@](O)(Cn1cncn1)c1ccc(F)cc1F` [Albaconazole], the “side effects compared with Lamisil” value is “fewer side effects”. For `CCC(C)(C)c1ccc(CC(C)CN2C[C@@H](C)O[C@@H](C)C2)cc1` (stereo partly shown) [Amorolfine, amorolfine], the “effectiveness against severe nail infections” value (topical, severe nail infections involving the nail bed) is reported as “not effective”. With `Cc1cc(C2CCCCC2)n(O)c(=O)c1` [Ciclopirox, ciclopirox], under “topical, 8% strength”, the cure rate entry is listed as “about 8.5%”.

Turning to `CN(C/C=C/C#CC(C)(C)C)Cc1cccc2ccccc12` [Lamisil, terbinafine hydrochloride], the mycological cure rate (oral treatment of nail infections) is 46%. In the case of `CC[C@@H]([C@H](C)O)n1ncn(-c2ccc(N3CCN(c4ccc(OC[C@@H]5CO[C@@](Cn6cncn6)(c6ccc(F)cc6F)C5)cc4)CC3)cc2)c1=O` [Posaconazole], the “side effects compared with Lamisil” value was “fewer side effects”. As to `OB1OCc2cc(F)ccc21` [Tavaborole, tavaborole], for the setting “topical, share of the 600 patients in the study”, the complete cure is recorded as 6%.

For the compound `C=C1CCN([C@H](C)[C@](O)(Cn2cncn2)c2ccc(F)cc2F)CC1` [efinaconazole], the cure rates (topical, only mild infections not involving the nail bed) is 17.8% and 15.2%.
